The record followed here is PubChem BioAssay (NCI).

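Method: 48-hour compound exposure of cells in 96-well plates, five concentrations, linear interpolation of endpoints. TGI marks complete inhibition of growth.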 Some results are limits rather than exact numbers.

Among the test systems are CCRF-CEM leukemia; EKVX NSCLC; HCT-15 colon; HOP-92 NSCLC; HS 578T breast; LOX IMVI melanoma; MDA-N; MOLT-4 leukemia; NCI-H460 lung; RPMI-8226 leukemia; SF-539 CNS; SNB-19 CNS; UACC-257 melanoma; UO-31 renal; BT-549 breast.
Experiment in all cases: NCI-60 cell line screen, 48 h

Consider `N#CCN(Cc1ccccc1)[C@H]1CCC[C@]1(O)/C=C/c1ccc2c(c1)OCO2`, for which the TGI is 53.1 µM with CCRF-CEM leukemia; more than 100 µM in the assay with EKVX NSCLC; 60.2 µM in the assay with HCT-15 colon; 60.9 µM with HOP-92 NSCLC; 43 µM with HS 578T breast; 29.4 µM in the assay with LOX IMVI melanoma. For the same molecule, the TGI was determined as 35.7 µM in the assay on MDA-N; 48.1 µM with MOLT-4 leukemia; 38.2 µM with NCI-H460 lung; 46 µM with RPMI-8226 leukemia; 88.8 µM in the assay with SF-539 CNS; 76.3 µM in the assay with SNB-19 CNS. Besides, the TGI is 58 µM in the assay with UACC-257 melanoma and more than 100 µM in the assay on UO-31 renal.
Turning to `N#Cc1cccc(Nc2ccccc2SSc2ccccc2Nc2cccc(C#N)c2)c1`, the TGI in the assay with CCRF-CEM leukemia is 14.9 µM; in the assay with EKVX NSCLC, more than 21.5 µM; in the assay with HCT-15 colon it was more than 21.5 µM; in the assay on HOP-92 NSCLC it was 19 µM; in the assay with HS 578T breast it was more than 14.6 µM; in the assay on LOX IMVI melanoma it was 8.88 µM. Besides, the TGI with MOLT-4 leukemia was 21.4 µM; in the assay with NCI-H460 lung, 12.8 µM; in the assay with RPMI-8226 leukemia, 11.5 µM; in the assay with SF-539 CNS, 17.4 µM; in the assay with SNB-19 CNS, 19.5 µM; with UACC-257 melanoma, more than 21.5 µM.
`O=C1CCCSCCCC(=O)CCCSCCC1`: the TGI in the assay with BT-549 breast, with CCRF-CEM leukemia, in the assay with EKVX NSCLC, with HCT-15 colon, with HOP-92 NSCLC and in the assay with LOX IMVI melanoma was more than 100 µM throughout. The TGI in the assay with MDA-N, with MOLT-4 leukemia, in the assay with NCI-H460 lung, in the assay on SF-539 CNS, in the assay on SNB-19 CNS and in the assay on UACC-257 melanoma was more than 100 µM each time. This molecule displayed a TGI in the assay on UO-31 renal of more than 100 µM.
As to `COc1cccc2c1C(=O)c1c(O)c3c(c(O)c1C2=O)CC(O)(C(C)=O)CC3OC1CC([N+](C)(C)C)C(O)C(C)O1` (configuration not stated), the TGI in the assay on CCRF-CEM leukemia is more than 100 µM; in the assay on EKVX NSCLC, more than 100 µM; with HCT-15 colon it was more than 100 µM; with HOP-92 NSCLC, more than 100 µM; in the assay on LOX IMVI melanoma it was more than 100 µM; in the assay on MOLT-4 leukemia, 56.1 µM. Also, the TGI with NCI-H460 lung, with RPMI-8226 leukemia, with SF-539 CNS, with SNB-19 CNS, in the assay with UACC-257 melanoma and in the assay on UO-31 renal was more than 100 µM throughout.
For the molecule `CCCCn1c(C)c(C)c2c1NN=C(C#N)S2(=O)=O`, the TGI in the assay with BT-549 breast, in the assay on EKVX NSCLC, with HCT-15 colon, in the assay with HS 578T breast, with LOX IMVI melanoma and in the assay on MOLT-4 leukemia was more than 100 µM in each case. In addition, the TGI with NCI-H460 lung, in the assay on RPMI-8226 leukemia, in the assay on SF-539 CNS, in the assay with SNB-19 CNS, with UACC-257 melanoma and in the assay with UO-31 renal was more than 100 µM in each case.
On to `C=CCN1C(=O)/C(=C/c2ccccc2)N=C1SC/C=C/C`, for which the TGI was more than 100 µM in the assay on BT-549 breast; more than 100 µM in the assay with CCRF-CEM leukemia; more than 100 µM in the assay with HCT-15 colon; 55.5 µM in the assay with HOP-92 NSCLC; more than 100 µM in the assay with HS 578T breast; more than 100 µM with LOX IMVI melanoma. In addition, the TGI with NCI-H460 lung is more than 100 µM; with RPMI-8226 leukemia, 49 µM; with SF-539 CNS it was more than 100 µM; with SNB-19 CNS, more than 100 µM; in the assay on UACC-257 melanoma it was 74.5 µM; in the assay on UO-31 renal, more than 100 µM.
For `CC[N+](C)(C)c1ccc(C(=C2C=CC(=[N+](C)C)C=C2)c2ccc(N(C)C)cc2)cc1`, the TGI with CCRF-CEM leukemia is 33.5 µM; in the assay with EKVX NSCLC, more than 100 µM; in the assay on HCT-15 colon it was 89.4 µM; with HOP-92 NSCLC it was 54.8 µM; with LOX IMVI melanoma, 24.2 µM; in the assay on MOLT-4 leukemia, 46.1 µM. The TGI in the assay with NCI-H460 lung came to 22.4 µM; in the assay with RPMI-8226 leukemia, 7.36 µM; with SF-539 CNS it was 50.4 µM; with UACC-257 melanoma, 28.6 µM; in the assay with UO-31 renal, 70.1 µM.
Consider `CCC(C)C1=C(O)[N+]2([O-])Oc3ccc(-c4c(O)c(O)c(-c5ccc(O)cc5)c(OC(C)=O)c4OC(C)=O)cc3OC2(C(C)CC)C(=O)N1O` (configuration not stated), for which the TGI with CCRF-CEM leukemia is 9.65 µM; with EKVX NSCLC, more than 50 µM; in the assay on HCT-15 colon it was more than 50 µM; in the assay on LOX IMVI melanoma, more than 50 µM; with MDA-N, more than 50 µM; with MOLT-4 leukemia, more than 50 µM. Besides, the TGI with NCI-H460 lung, with RPMI-8226 leukemia, in the assay on SF-539 CNS, in the assay on SNB-19 CNS, in the assay with UACC-257 melanoma and in the assay on UO-31 renal was more than 50 µM throughout.
As for `Cc1ccc(-n2nnc3c(NNc4ccccc4)n[nH]c(=O)c32)cc1`, the TGI in the assay on BT-549 breast, with CCRF-CEM leukemia, with EKVX NSCLC, in the assay with HCT-15 colon, in the assay on HOP-92 NSCLC and in the assay with LOX IMVI melanoma was more than 100 µM each time. Moreover, the TGI in the assay on MOLT-4 leukemia, with NCI-H460 lung, in the assay with RPMI-8226 leukemia, in the assay with SF-539 CNS, in the assay with SNB-19 CNS and with UACC-257 melanoma was more than 100 µM in each case.
For the molecule `CC12CC(=O)OC(Cc3ccccc31)O2` (configuration not stated), the TGI in the assay with CCRF-CEM leukemia, with EKVX NSCLC, in the assay with HOP-92 NSCLC, in the assay with LOX IMVI melanoma, in the assay on MOLT-4 leukemia and in the assay on NCI-H460 lung was more than 100 µM in each case. Also, the TGI in the assay with RPMI-8226 leukemia, with SF-539 CNS, with SNB-19 CNS, in the assay with UACC-257 melanoma and in the assay with UO-31 renal was more than 100 µM each time.
As for `Cc1c2[nH]c3ccc(Br)cc3c2c(C)c2[nH]ccc(=O)c12`, the TGI in the assay with CCRF-CEM leukemia worked out at 31.6 µM; in the assay with EKVX NSCLC, 33.5 µM; with HCT-15 colon it was 30.4 µM; in the assay with LOX IMVI melanoma, 32.7 µM; in the assay on MOLT-4 leukemia, 28 µM; in the assay on NCI-H460 lung, 23.1 µM. Further, the TGI amounted to 41.5 µM in the assay with RPMI-8226 leukemia; 32 µM in the assay with SF-539 CNS; 33.2 µM with SNB-19 CNS; 34.9 µM in the assay on UACC-257 melanoma; 24.2 µM in the assay with UO-31 renal.
